Laboratory results as given in PMC5479551, “Development of a range of fluorescent reagentless biosensors for ATP, based on malonyl-coenzyme A synthetase” (PLoS ONE, 2017).

Experiments:
[1] = target: T1, T303A Rho-MatB (Rhodopseudomonas palustris, UniProt Q6ND88, C106A/K488A/Q457C/R286C/T303A); experiment: Fluorescence titration (excitation 553 nm, emission 571 nm) of 0.5 µM fully purified Rho-MatB with ADP in 50 mM Hepes pH 7.0, 100 mM NaCl, 10 mM MgCl2, 0.3 mg/ml BSA, 20°C, quadratic binding fit.
T1 construct: His6-tag, Rho-MatB background, two tetramethylrhodamines (5-IATR)
T1 sequence (Q6ND88 entry or part of it C106A/R286C/T303A/Q457C/K488A): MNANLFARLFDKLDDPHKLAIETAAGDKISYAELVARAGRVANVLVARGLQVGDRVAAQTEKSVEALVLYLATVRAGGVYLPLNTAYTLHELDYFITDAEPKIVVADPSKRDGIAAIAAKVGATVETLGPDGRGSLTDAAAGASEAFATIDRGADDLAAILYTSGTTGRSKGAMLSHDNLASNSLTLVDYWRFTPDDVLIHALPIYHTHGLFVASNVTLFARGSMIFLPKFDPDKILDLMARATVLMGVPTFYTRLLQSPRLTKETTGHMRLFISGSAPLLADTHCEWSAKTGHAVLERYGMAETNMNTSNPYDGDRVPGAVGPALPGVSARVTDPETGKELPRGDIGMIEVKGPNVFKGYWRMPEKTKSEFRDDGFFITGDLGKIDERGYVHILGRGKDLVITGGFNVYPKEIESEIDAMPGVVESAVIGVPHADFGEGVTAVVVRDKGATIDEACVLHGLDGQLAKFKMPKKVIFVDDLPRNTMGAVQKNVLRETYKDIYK
Text: (§1) Data from titrations to measure nucleotide binding were corrected for dilution and analyzed with a quadratic binding curve using Grafit software: F=Fmin+(Fmax−Fmin)×(Kd+L+P−(Kd+L+P)^2−4×P×L)/2×P where P and L are the total concentrations of protein and ligand, respectively, Kd is the dissociation constant, and Fmin and Fmax are the fluorescence intensities of the free and ligand- bound protein, respectively.
(§2) Fig 2 Nucleotide affinity for variants of Rho-MatB. Titration of ATP (circles) and ADP (triangles) to (A) 0.5 µM Rho-MatB T167A, (B) 0.5 μM Rho-MatB T303A; (C) 0.5 μM Rho-MatB S170A. Measurements are shown for one representative experiment and were in 50 mM Hepes pH 7.0, 100 mM NaCl, 10 mM MgCl2, 0.3 mg ml^-1 bovine serum albumin at 20°C. Excitation was at 553 nm, emission at 571 nm. The dissociation constants and fluorescence ratios were obtained using a quadratic binding equation (see Methods) and are listed in Table 2. The drop lines are to indicate the dissociation constants. Data are normalized to the intensity in the absence of nucleotide.
(§3) The affinity for ATP and ADP was determined by measuring the fluorescence at different concentrations of the nucleotide (Fig 2A and 2B). Both variants show similar fluorescent changes with ATP compared to the parent Rho-MatB, but the dissociation constants (Kd) are much higher (Table 2). In contrast, the affinity of ADP was much less affected by the mutations, remaining very weak (Table 2). The change in ATP affinity presumably reflects the importance of hydrogen-bonding interactions with the triphosphate, decreased by mutating to alanine.

[2] = target: T2, T167A Rho-MatB (Rhodopseudomonas palustris, UniProt Q6ND88, C106A/K488A/Q457C/R286C/T167A); experiment: as above
T2 construct: His6-tag, Rho-MatB background, two tetramethylrhodamines (5-IATR)
T2 sequence (Q6ND88 entry or part of it C106A/T167A/R286C/Q457C/K488A): as the sequence (Q6ND88 entry or part of it C106A/R286C/T303A/Q457C/K488A) above, with T167A, A303T counted along it
Text: as §1, §2, §3

[3] = target: T3, Parent (Rho-MatB) (Rhodopseudomonas palustris, UniProt Q6ND88, C106A/K488A/Q457C/R286C); experiment: as above
T3 construct: N-terminal His6-tag, expressed in E. coli; two tetramethylrhodamines (5-IATR) on introduced cysteines
T3 sequence (Q6ND88 entry or part of it C106A/R286C/Q457C/K488A): as the sequence (Q6ND88 entry or part of it C106A/R286C/T303A/Q457C/K488A) above, with A303T counted along it
Text: as §1, §2, §3

[4] = target: T4, S170A Rho-MatB (Rhodopseudomonas palustris, UniProt Q6ND88, C106A/K488A/Q457C/R286C/S170A); experiment: as above
T4 construct: His6-tag, Rho-MatB background, two tetramethylrhodamines (5-IATR)
T4 sequence (Q6ND88 entry or part of it C106A/S170A/R286C/Q457C/K488A): as the sequence (Q6ND88 entry or part of it C106A/R286C/T303A/Q457C/K488A) above, with S170A, A303T counted along it
Text: as §1, §2, §3

[5] = target: T5, T166A Rho-MatB (Rhodopseudomonas palustris, UniProt Q6ND88, C106A/K488A/Q457C/R286C/T166A); experiment: Survey fluorescence titration of tetramethylrhodamine-labelled MatB variants with ATP in 50 mM Tris.HCl pH 7.5, 150 mM NaCl, 10 mM MgCl2, 0.3 mg/ml BSA, 20°C, without full optimization of labelling and purification.; type: binding
T5 construct: His6-tag, Rho-MatB background, two tetramethylrhodamines (5-IATR)
T5 sequence (Q6ND88 entry or part of it C106A/T166A/R286C/Q457C/K488A): as the sequence (Q6ND88 entry or part of it C106A/R286C/T303A/Q457C/K488A) above, with T166A, A303T counted along it
Description: as §1
(§4) The labeled proteins were then tested for a fluorescence change upon ATP binding in the presence of Mg^2+ (Table 1). For variants showing a significant fluorescence change, the affinity for ATP was determined by titration (Table 1).

[6] = target: T6, R299A Rho-MatB (Rhodopseudomonas palustris, UniProt Q6ND88, C106A/K488A/Q457C/R286C/R299A); experiment: as above; type: binding
T6 construct: His6-tag, Rho-MatB background, two tetramethylrhodamines (5-IATR)
T6 sequence (Q6ND88 entry or part of it C106A/R286C/R299A/Q457C/K488A): as the sequence (Q6ND88 entry or part of it C106A/R286C/T303A/Q457C/K488A) above, with R299A, A303T counted along it
Description: as §1, §4

[7] = target: T7, T167S Rho-MatB (Rhodopseudomonas palustris, UniProt Q6ND88, C106A/K488A/Q457C/R286C/T167S); experiment: as above; type: binding
T7 construct: His6-tag, Rho-MatB background, two tetramethylrhodamines (5-IATR)
T7 sequence (Q6ND88 entry or part of it C106A/T167S/R286C/Q457C/K488A): as the sequence (Q6ND88 entry or part of it C106A/R286C/T303A/Q457C/K488A) above, with T167S, A303T counted along it
Description: as §1, §4

[8] = target: T1, T303A Rho-MatB; experiment: as above; type: binding
Description: as §1, §4

[9] = target: T2, T167A Rho-MatB; experiment: as above; type: binding
Description: as §1, §4

[10] = target: T8, Q490A Rho-MatB (Rhodopseudomonas palustris, UniProt Q6ND88, C106A/K488A/Q457C/Q490A/R286C); experiment: as above; type: binding
T8 construct: His6-tag, Rho-MatB background, two tetramethylrhodamines (5-IATR)
T8 sequence (Q6ND88 entry or part of it C106A/R286C/Q457C/K488A/Q490A): as the sequence (Q6ND88 entry or part of it C106A/R286C/T303A/Q457C/K488A) above, with A303T, Q490A counted along it
Description: as §1, §4

[11] = target: T9, S164A Rho-MatB (Rhodopseudomonas palustris, UniProt Q6ND88, C106A/K488A/Q457C/R286C/S164A); experiment: as above; type: binding
T9 construct: His6-tag, Rho-MatB background, two tetramethylrhodamines (5-IATR)
T9 sequence (Q6ND88 entry or part of it C106A/S164A/R286C/Q457C/K488A): as the sequence (Q6ND88 entry or part of it C106A/R286C/T303A/Q457C/K488A) above, with S164A, A303T counted along it
Description: as §1, §4

[12] = target: T3, Parent (Rho-MatB); experiment: as above; type: binding
Description: as §1, §4

[13] = target: T10, T208A Rho-MatB (Rhodopseudomonas palustris, UniProt Q6ND88, C106A/K488A/Q457C/R286C/T208A); experiment: as above; type: binding
T10 construct: His6-tag, Rho-MatB background, two tetramethylrhodamines (5-IATR)
T10 sequence (Q6ND88 entry or part of it C106A/T208A/R286C/Q457C/K488A): as the sequence (Q6ND88 entry or part of it C106A/R286C/T303A/Q457C/K488A) above, with T208A, A303T counted along it
Description: as §1, §4

[14] = target: T11, T303S Rho-MatB (Rhodopseudomonas palustris, UniProt Q6ND88, C106A/K488A/Q457C/R286C/T303S); experiment: as above; type: binding
T11 construct: His6-tag, Rho-MatB background, two tetramethylrhodamines (5-IATR)
T11 sequence (Q6ND88 entry or part of it C106A/R286C/T303S/Q457C/K488A): as the sequence (Q6ND88 entry or part of it C106A/R286C/T303A/Q457C/K488A) above, with A303S counted along it
Description: as §1, §4

[15] = target: T12, M302A Rho-MatB (Rhodopseudomonas palustris, UniProt Q6ND88, C106A/K488A/M302A/Q457C/R286C); experiment: as above; type: binding
T12 construct: His6-tag, Rho-MatB background, two tetramethylrhodamines (5-IATR)
T12 sequence (Q6ND88 entry or part of it C106A/R286C/M302A/Q457C/K488A): as the sequence (Q6ND88 entry or part of it C106A/R286C/T303A/Q457C/K488A) above, with M302A, A303T counted along it
Description: as §1, §4

[16] = target: T13, Y300A Rho-MatB (Rhodopseudomonas palustris, UniProt Q6ND88, C106A/K488A/Q457C/R286C/Y300A); experiment: as above; type: binding
T13 construct: His6-tag, Rho-MatB background, two tetramethylrhodamines (5-IATR)
T13 sequence (Q6ND88 entry or part of it C106A/R286C/Y300A/Q457C/K488A): as the sequence (Q6ND88 entry or part of it C106A/R286C/T303A/Q457C/K488A) above, with Y300A, A303T counted along it
Description: as §1, §4

[17] = target: T14, T163A Rho-MatB (Rhodopseudomonas palustris, UniProt Q6ND88, C106A/K488A/Q457C/R286C/T163A); experiment: as above; type: binding
T14 construct: His6-tag, Rho-MatB background, two tetramethylrhodamines (5-IATR)
T14 sequence (Q6ND88 entry or part of it C106A/T163A/R286C/Q457C/K488A): as the sequence (Q6ND88 entry or part of it C106A/R286C/T303A/Q457C/K488A) above, with T163A, A303T counted along it
Description: as §1, §4

[18] = target: T15, R169A Rho-MatB (Rhodopseudomonas palustris, UniProt Q6ND88, C106A/K488A/Q457C/R169A/R286C); experiment: as above; type: binding
T15 construct: His6-tag, Rho-MatB background, two tetramethylrhodamines (5-IATR)
T15 sequence (Q6ND88 entry or part of it C106A/R169A/R286C/Q457C/K488A): as the sequence (Q6ND88 entry or part of it C106A/R286C/T303A/Q457C/K488A) above, with R169A, A303T counted along it
Description: as §1, §4

[19] = target: T16, H207A Rho-MatB (Rhodopseudomonas palustris, UniProt Q6ND88, C106A/H207A/K488A/Q457C/R286C); experiment: as above; type: binding
T16 construct: His6-tag, Rho-MatB background, two tetramethylrhodamines (5-IATR)
T16 sequence (Q6ND88 entry or part of it C106A/H207A/R286C/Q457C/K488A): as the sequence (Q6ND88 entry or part of it C106A/R286C/T303A/Q457C/K488A) above, with H207A, A303T counted along it
Description: as §1, §4

[20] = target: T4, S170A Rho-MatB; experiment: as above; type: binding
Description: as §1, §4

[21] = target: T1, T303A Rho-MatB; experiment: Fluorescence titration (excitation 553 nm, emission 571 nm) of 0.5 µM fully purified Rho-MatB with ATP in 50 mM Hepes pH 7.0, 100 mM NaCl, 10 mM MgCl2, 0.3 mg/ml BSA, 20°C, quadratic binding fit.
Text: as §1, §2, §3

[22] = target: T2, T167A Rho-MatB; experiment: as above
Text: as §1, §2, §3

[23] = target: T3, Parent (Rho-MatB); experiment: as above
Text: as §1, §2, §3

[24] = target: T4, S170A Rho-MatB; experiment: as above
Text: as §1, §2, §3

In the case of `Nc1ncnc2c1ncn2[C@@H]1O[C@H](COP(=O)(O)OP(=O)(O)O)[C@@H](O)[C@H]1O` [ADP, adenosine 5'-diphosphate], the Kd [1] is reported as 1840 ± 114 µM, the Kd [2] is reported as 900 ± 28 µM and the Kd [3] is reported as 428 ± 50 µM. The Kd [4] was 887 ± 25 µM.

Work on `Nc1ncnc2c1ncn2[C@@H]1O[C@H](COP(=O)(O)OP(=O)(O)OP(=O)(O)O)[C@@H](O)[C@H]1O` [ATP, adenosine 5'-triphosphate] yielded a Kd [5] of 156 ± 7 µM, a Kd [6] of 2.4 ± 0.1 µM and a Kd [7] of 52 ± 1 µM. For the same compound, the Kd [8] was 42 ± 1 µM, the Kd [9] was 149 ± 7 µM and the Kd [10] was 66 ± 3 µM. For the same compound, the Kd [11] was 17.4 ± 0.4 µM, the Kd [12] was 8.8 ± 0.3 µM and the Kd [13] was 52 ± 5 µM. It also gave a Kd [14] of 56 ± 3 µM, a Kd [15] of 50 ± 5 µM and a Kd [16] of 11.1 ± 0.5 µM. The Kd [17] was 297 ± 27 µM, the Kd [18] was 33 ± 1 µM and the Kd [19] was 224 ± 18 µM. The Kd [20] was 4 ± 0.1 µM, the Kd [21] was 42 ± 2 µM and the Kd [22] was 123 ± 4 µM. For the same compound, the Kd [23] was 6.4 ± 0.6 µM and the Kd [24] was 3.8 ± 0.1 µM.
